For experiment [1], the target named is T1, Tyrosine-protein phosphatase non-receptor type 2 (Homo sapiens, UniProt P17706).
T1 sequence (P17706 whole entry): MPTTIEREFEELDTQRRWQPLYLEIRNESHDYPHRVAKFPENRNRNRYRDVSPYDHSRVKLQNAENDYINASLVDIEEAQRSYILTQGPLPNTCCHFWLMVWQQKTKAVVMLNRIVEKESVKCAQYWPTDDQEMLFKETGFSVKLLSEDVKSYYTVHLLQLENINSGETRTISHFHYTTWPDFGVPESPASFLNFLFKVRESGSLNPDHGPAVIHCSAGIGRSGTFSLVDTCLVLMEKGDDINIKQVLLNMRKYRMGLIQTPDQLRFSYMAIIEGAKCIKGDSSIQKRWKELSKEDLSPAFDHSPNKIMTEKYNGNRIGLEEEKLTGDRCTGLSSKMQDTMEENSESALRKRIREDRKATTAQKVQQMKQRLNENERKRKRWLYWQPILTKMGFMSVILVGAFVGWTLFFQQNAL
In words: Inhibition of TCPTP (unknown origin) expressed in Escherichia coli using pNPP substrate after 5 mins by spectrophotometric analysis.

Experiment [2] deals with RAW264.7. In words: Inhibition of Mycobacterium tuberculosis PTPB expressed in mouse RAW264.7 macrophages assessed as induction of apoptosis after 1 hr by annexin V-FITC /propidium iodide staining-based flow cytometric analysis. In kind it is cell-based.
In experiment [3] the test system is RAW264.7. Description: Inhibition of Mycobacterium tuberculosis PTPB expressed in mouse RAW264.7 macrophages assessed as increase in caspase activity after 1 hr by spectrophotometric analysis. It counts as cell-based.
For experiment [4], the system named is RAW264.7. In words: Inhibition of Mycobacterium tuberculosis PTPB expressed in mouse RAW264.7 macrophages assessed as decrease in Akt activity after 1 hr by Western blotting analysis. It counts as cell-based. For orientation: In western blotting, separated proteins are transferred to a membrane and probed.
For experiment [5], the system named is Mycobacterium tuberculosis. In words: Inhibition of Mycobacterium tuberculosis PTPB expressed in mouse RAW264.7 macrophages assessed as restoration of IFNgamma-induced IL-6 production after 1 hr by ELISA. (In general: An ELISA detects its analyte on a solid surface through an enzyme-linked reagent.)
The subject of experiment [6] is Mycobacterium tuberculosis. Description: Inhibition of Mycobacterium tuberculosis PTPB expressed in mouse RAW264.7 macrophages assessed as restoration of IFNgamma-induced p38 activation after 1 hr by Western blotting analysis.
Experiment [7] has as its system Mycobacterium tuberculosis. Description: Inhibition of Mycobacterium tuberculosis PTPB expressed in mouse RAW264.7 macrophages assessed as restoration of IFNgamma-induced ERK1/2 activation after 1 hr by Western blotting analysis.
The target in experiment [8] is Receptor-type tyrosine-protein phosphatase F (Homo sapiens, UniProt P10586). Description: Inhibition of LAR (unknown origin) expressed in Escherichia coli using pNPP substrate after 5 mins by spectrophotometric analysis.
Experiment [9] has as its target Receptor-type tyrosine-protein phosphatase alpha (Homo sapiens, UniProt P18433). In words: Inhibition of PTPalpha (unknown origin) expressed in Escherichia coli using pNPP substrate after 5 mins by spectrophotometric analysis.
The target in experiment [10] is T2, Laforin (Homo sapiens, UniProt O95278).
T2 sequence (O95278 whole entry): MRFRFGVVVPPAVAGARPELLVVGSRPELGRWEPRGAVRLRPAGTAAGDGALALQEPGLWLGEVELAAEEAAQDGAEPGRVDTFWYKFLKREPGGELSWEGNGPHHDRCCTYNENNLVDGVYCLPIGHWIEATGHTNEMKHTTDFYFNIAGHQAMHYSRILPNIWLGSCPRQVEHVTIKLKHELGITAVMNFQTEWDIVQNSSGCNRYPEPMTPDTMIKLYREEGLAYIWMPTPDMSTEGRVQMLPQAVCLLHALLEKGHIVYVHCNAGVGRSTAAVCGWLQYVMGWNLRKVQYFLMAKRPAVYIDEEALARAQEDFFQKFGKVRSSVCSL
In words: Inhibition of Laforin (unknown origin) expressed in Escherichia coli using pNPP substrate after 5 mins by spectrophotometric analysis.

Activity calls are given as the source filed them. No cut-off for these calls is given here.

Sequence of Receptor-type tyrosine-protein phosphatase F (P10586 whole entry): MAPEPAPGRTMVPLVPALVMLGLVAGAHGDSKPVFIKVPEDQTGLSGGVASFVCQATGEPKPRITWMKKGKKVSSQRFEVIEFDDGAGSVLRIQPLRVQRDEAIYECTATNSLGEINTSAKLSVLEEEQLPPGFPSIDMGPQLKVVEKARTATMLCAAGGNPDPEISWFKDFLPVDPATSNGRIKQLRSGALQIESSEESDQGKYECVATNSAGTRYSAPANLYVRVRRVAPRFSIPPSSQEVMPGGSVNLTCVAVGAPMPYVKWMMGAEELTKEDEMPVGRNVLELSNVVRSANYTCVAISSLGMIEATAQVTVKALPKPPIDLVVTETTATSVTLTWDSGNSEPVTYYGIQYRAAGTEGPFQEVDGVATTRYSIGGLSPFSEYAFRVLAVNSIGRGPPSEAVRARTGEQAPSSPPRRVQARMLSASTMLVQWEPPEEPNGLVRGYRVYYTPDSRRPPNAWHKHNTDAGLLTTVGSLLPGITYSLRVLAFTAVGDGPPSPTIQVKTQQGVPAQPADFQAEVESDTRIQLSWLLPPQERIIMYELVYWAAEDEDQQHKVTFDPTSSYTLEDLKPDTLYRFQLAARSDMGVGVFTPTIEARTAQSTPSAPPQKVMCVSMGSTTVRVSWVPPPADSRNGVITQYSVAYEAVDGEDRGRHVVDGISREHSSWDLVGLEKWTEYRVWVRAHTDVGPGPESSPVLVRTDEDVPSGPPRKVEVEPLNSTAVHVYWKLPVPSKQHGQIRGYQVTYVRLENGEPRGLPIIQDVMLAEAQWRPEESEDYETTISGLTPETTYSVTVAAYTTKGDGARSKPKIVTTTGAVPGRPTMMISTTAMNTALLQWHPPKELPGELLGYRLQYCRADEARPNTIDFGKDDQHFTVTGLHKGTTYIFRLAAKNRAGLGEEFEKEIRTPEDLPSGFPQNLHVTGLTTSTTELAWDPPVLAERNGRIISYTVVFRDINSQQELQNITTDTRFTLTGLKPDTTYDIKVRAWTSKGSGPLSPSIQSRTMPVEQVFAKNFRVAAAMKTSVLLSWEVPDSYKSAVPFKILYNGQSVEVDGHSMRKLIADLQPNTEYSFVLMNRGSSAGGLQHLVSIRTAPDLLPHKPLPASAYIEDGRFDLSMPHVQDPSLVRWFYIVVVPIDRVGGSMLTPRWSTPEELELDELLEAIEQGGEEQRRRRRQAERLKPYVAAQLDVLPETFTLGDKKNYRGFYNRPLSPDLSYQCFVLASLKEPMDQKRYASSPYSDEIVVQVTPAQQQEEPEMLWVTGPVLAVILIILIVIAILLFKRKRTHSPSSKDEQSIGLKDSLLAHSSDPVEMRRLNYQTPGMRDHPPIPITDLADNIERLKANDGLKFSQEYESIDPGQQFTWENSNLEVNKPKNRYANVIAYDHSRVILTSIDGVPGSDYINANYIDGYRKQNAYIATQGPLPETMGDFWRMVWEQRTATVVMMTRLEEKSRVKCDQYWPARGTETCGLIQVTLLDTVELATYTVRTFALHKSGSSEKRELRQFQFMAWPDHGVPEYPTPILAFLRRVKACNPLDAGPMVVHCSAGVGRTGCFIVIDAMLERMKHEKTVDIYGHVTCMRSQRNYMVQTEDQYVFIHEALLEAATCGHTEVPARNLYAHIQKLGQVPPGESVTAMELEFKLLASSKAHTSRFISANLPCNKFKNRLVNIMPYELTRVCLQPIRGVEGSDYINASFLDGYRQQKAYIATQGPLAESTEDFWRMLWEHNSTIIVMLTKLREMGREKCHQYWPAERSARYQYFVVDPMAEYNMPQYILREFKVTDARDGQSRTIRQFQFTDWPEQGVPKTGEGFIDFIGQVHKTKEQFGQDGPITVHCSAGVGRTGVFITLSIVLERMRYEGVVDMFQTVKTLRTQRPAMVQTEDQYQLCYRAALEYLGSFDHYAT
Sequence of Receptor-type tyrosine-protein phosphatase alpha (P18433 whole entry): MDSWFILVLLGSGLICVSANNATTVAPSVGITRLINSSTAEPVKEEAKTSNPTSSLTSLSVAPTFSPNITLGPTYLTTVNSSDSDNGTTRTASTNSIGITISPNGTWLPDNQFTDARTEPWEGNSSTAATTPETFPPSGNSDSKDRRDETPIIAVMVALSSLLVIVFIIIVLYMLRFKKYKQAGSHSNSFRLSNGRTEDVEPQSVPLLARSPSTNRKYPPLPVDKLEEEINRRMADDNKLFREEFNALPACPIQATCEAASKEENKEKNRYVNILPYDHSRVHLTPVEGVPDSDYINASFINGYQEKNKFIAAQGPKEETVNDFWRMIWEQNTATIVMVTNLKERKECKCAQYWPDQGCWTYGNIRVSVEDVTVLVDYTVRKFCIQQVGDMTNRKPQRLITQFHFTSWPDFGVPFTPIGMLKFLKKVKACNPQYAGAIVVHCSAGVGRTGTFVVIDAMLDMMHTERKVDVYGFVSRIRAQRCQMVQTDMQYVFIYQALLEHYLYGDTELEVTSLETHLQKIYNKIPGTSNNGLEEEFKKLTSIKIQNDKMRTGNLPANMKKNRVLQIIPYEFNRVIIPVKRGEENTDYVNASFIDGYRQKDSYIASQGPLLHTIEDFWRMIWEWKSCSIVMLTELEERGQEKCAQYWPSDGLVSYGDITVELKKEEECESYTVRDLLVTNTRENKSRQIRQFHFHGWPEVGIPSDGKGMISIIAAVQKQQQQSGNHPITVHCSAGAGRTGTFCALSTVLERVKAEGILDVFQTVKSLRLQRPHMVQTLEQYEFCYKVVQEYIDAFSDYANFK

`O=C(O)c1cc2c(C#Cc3cccc(C(F)(F)F)c3)c(-c3ccccc3)oc2cc1O`: the IC50 (as a rule, the midpoint of a concentration-inhibition curve) in experiment [1] is 13 µM; in experiment [8], over 10 µM; in experiment [9], over 10 µM. Moreover, the inhibition entry in experiment [2], in experiment [3] and in [4] was “Active” throughout. Further, the inhibition result in experiment [5], in experiment [6] and in experiment [7] was “Dose-dependent effect” in each case.

With `O=C(O)c1cc2c(C#Cc3cc(F)cc(F)c3)c(-c3ccccc3)oc2cc1O`, the IC50 in experiment [1] is 6.1 µM; in experiment [8], over 10 µM; in [9], over 10 µM; in experiment [10], over 30 µM.

These data come from ChEMBL document CHEMBL2311454, “Discovery and evaluation of novel inhibitors of mycobacterium protein tyrosine phosphatase B from the 6-Hydroxy-benzofuran-5-carboxylic acid scaffold” (J Med Chem, 2013).
